Results reported in ChEMBL document CHEMBL1150756, “Isolation of an anti-inflammatory principle from the fruit juice of Ecballium elaterium” (J Nat Prod, 1988).

What was measured:
[1] = Toxicity in po dosed dd mouse; type: organism-based; settings: in vivo
Mus musculus = experiment: Antiinflammatory activity in po dosed dd mouse assessed as inhibition of acetic acid-induced vascular permeability administered 30 mins before acetic acid challenge measured after 20 mins; type: functional

SMILES: CC(=O)OC(C)(C)/C=C/C(=O)[C@](C)(O)[C@H]1[C@H](O)C[C@@]2(C)[C@@H]3CC=C4[C@@H](C[C@H](O)C(=O)C4(C)C)[C@]3(C)C(=O)C[C@]12C [CUCURBITACIN B]
- LD50 [1]: 10.9 mg/kg

SMILES: CC(=O)OC(C)(C)/C=C/C(=O)[C@](C)(O)[C@H]1[C@H](O)C[C@@]2(C)[C@@H]3CC=C4[C@H](C[C@H](O)C(=O)C4(C)C)[C@]3(C)C(=O)C[C@]12C [CUCURBITACIN B]
- ED50 (Mus musculus): 6.1 mg/kg
